Assay results: patent publication US6693107B1, “Pharmaceutical composition useful for the treatment of tinnitus and hearing loss” (priority 1999, dated 2004)
Structures can show the parent of a compound that is named as a salt.

What was measured:
hearing loss = experiment: Case report: hearing loss / audiogram in patient treated with sildenafil citrate; type: in vivo, human
From the text: A person suffering for several years from severe tinnitus and hearing loss in their right ear had repeatedly sought medical advice and tried many alleged therapies for their tinnitus, none of which was effective. […] Other than that they are in good health and receives no medications. Recently they were prescribed sildenafil citrate for improving their sexual performance. […] For instance, at frequencies of 500-1000 Hz, hearing in their right ear improved from 50-55 dB to 30 dB.

tinnitus = experiment: Case reports: tinnitus in patients treated with sildenafil citrate; type: in vivo, human
From the text: A person suffering for several years from severe tinnitus and hearing loss in their right ear had repeatedly sought medical advice and tried many alleged therapies for their tinnitus, none of which was effective. […] Other than that they are in good health and receives no medications. Recently they were prescribed sildenafil citrate for improving their sexual performance. […] A person known to have bilateral tinnitus and hearing loss for more than 20 years. Other than hypertension, for which they are treated, they are in good health. They were prescribed sildenafil citrate, 25 mg daily, for the tinnitus.

[1] = patients suffering from tinnitus

| SMILES | audiogram (overall) (hearing loss; Example 1: after several months treatment) | hearing in right ear after treatment (audiogram) (hearing loss; Example 1: frequencies of 500-1000 Hz, after several months treatment, improved from 50-55 dB before treatment) [dB] | hearing (patient report) (hearing loss; Example 1: person, hearing loss in right ear, on continued treatment) | effect on tinnitus (tinnitus; Example 1: person, severe tinnitus in right ear, first course of sildenafil citrate) | tinnitus status on continued treatment (tinnitus; Example 1: person, continues on sildenafil citrate) | return of the tinnitus after cessation of the medication (tinnitus; Example 1: person, intentional stop of the medication) | severity of tinnitus on rechallenge (tinnitus; Example 1: person, rechallenge 25 mg twice weekly) | effect on tinnitus (tinnitus; Example 2: person, bilateral tinnitus, 25 mg daily, starting after the 5th daily dose, persisted as long as drug taken) | effect on hearing loss (general statement) (hearing loss; [1]) | effect on tinnitus (general statement) (tinnitus; [1]) |
| --- | --- | --- | --- | --- | --- | --- | --- | --- | --- | --- |
| CCCc1nn(C)c2c(=O)[nH]c(-c3cc(S(=O)(=O)N4CCN(C)CC4)ccc3OCC)nc12 [sildenafil citrate, 1-[[3-(6,7-dihydro-1-methyl-7-oxo-3-propyl-1H-pyrazolo [4,3-d]pyrimidin-5-yl)-4-ethoxyphenyl]sulfonyl]4-methylpiperazine citrate] | marked improvement | 30 | significant improvement in their hearing | amelioration of the tinnitus, which eventually nearly disappeared | practically tinnitus-free | 2-3 weeks | reduced the severity of tinnitus within a week and proceeded to almost complete disappearance of the symptom | marked reduction in their tinnitus | – | – |
| CCCc1nn(C)c2c(=O)[nH]c(-c3cc(S(=O)(=O)N4CCN(C)CC4)ccc3OCC)nc12 [sildenafil] | – | – | – | – | – | – | – | – | ameliorating hearing loss | effective in reducing tinnitus |
